Reference: patent US20120071513A1, “Compositions and Their Use as Anti-Tumor Agents” (COMPASS PHARMACEUTICALS LLC, priority 2004, published 2012)

Legend:
[1] = test system: A2780 human ovarian adenocarcinoma xenografts; experiment: in vivo anti-tumor activity, A2780 xenografts; design: species or system mice; conditions: 15 mg/kg, Day 19, positive control
Description: Body weights and tumor measurements were recorded three times weekly. Tumor burden (mg) was estimated from caliper measurements by the formula for the volume of a prolate ellipsoid assuming unit density as: Tumor burden (mg)=(L×W2)/2, where L and W are the respective orthogonal tumor length and width measurements (mm). The primary endpoints used to evaluate efficacy were study day 26 T/C values, complete and partial tumor responses, tumor growth delay, and the number of tumor-free survivors at the end of the study. T/C values were calculated by dividing the treated median tumor mass by the median control tumor mass and multiplying by 100. The USA National Cancer Institute (NCI) considers a compound which produces a % T/C value of 42 of less is active. Complete response (CR) is defined as a decrease in tumor mass to an undetectable size (<50 mg), and a partial response (PR) is defined as a ≧50% decrease in tumor mass from that at first treatment. […] Tumor Growth Delay (T-C) was also used to quantify efficacy. Tumor growth delay for this experiment was expressed as a T-C value, where T and C are the median times in days required for the treatment and control group tumors, respectively, to grow to a selected evaluation size, 750 mg. […]
Test animals were implanted subcutaneously on day 0 with 30 to 60 mg A2780 tumor fragments. […] Tumor mass on day 19 was analyzed by a single factor ANOVA. […]

[2] = test system: A375 human melanoma xenografts; experiment: in vivo anti-tumor activity, A375 xenografts; design: species or system mice; conditions: 30 mg/kg
Description: The in vivo anti-tumor activity of CP5017808 was evaluated against A375 human melanoma xenografts and ovarian carcinoma.
CP5017808 was dissolved with heat and sonication in a 1:1 mixture of absolute ethanol and CREMAPHOR™ equivalent to 20% of the final desired volume, and then brought to a final volume with 40% hydroxypropyl-β-cyclodextin in water. CP5017808 produced a fine suspension with a pH of 6.2.
Female NCr nu/nu mice (Charles River Laboratory) were used for the study. They were 5-6 weeks old on Day 1 of the experiment. The animals were fed Rodent Diet 5010 (LabDiet™) and water ad libitum. The mice were housed in Thoren™ microisolator caging with Bed-O'Cobs™ bedding. […]
Body weights and tumor measurements were recorded three times weekly. […] T/C values were calculated by dividing the treated median tumor mass by the median control tumor mass and multiplying by 100. […] Tumor Growth Delay (T-C) was also used to quantify efficacy. Tumor growth delay for this experiment was expressed as a T-C value, where T and C are the median times in days required for the treatment and control group tumors, respectively, to grow to a selected evaluation size, 750 mg.
The time for individual tumors to reach evaluation size, time to fold growth, and tumor volume doubling times were analyzed by a single factor ANOVA. […]

Row | Structure (SMILES) | % T/C value [1] [%] | tumor growth delay ([2]; evaluation size 750 mg) [days] | % T/C value ([2]; study day 26, positive control) [%]
1 | CC(=O)O[C@H]1C(=O)[C@@]2(C)[C@H]([C@H](OC(=O)c3ccccc3)[C@]3(O)C[C@H](OC(=O)[C@H](O)[C@@H](NC(=O)c4ccccc4)c4ccccc4)C(C)=C1C3(C)C)[C@]1(OC(C)=O)CO[C@@H]1C[C@@H]2O [Taxol®] | 15 | – | –
2 | CC(=O)O[C@@]12CO[C@@H]1C[C@H](O)[C@@]1(C)C(=O)[C@H](O)C3=C(C)[C@@H](OC(=O)[C@H](O)[C@@H](NC(=O)OC(C)(C)C)c4ccccc4)C[C@@](O)([C@@H](OC(=O)c4ccccc4)[C@H]21)C3(C)C [docetaxel] | – | 10 | 32
